From patent US12729405B2, “Method and kit for determining benefit of chemotherapy” (St. Jude Children's Research Hospital, Inc., priority 2019, dated 2026)
Like-named read-outs stand apart in the source and are kept apart here.

Columns and labels:
primary human ALL cells = assay: cells; conditions: for response of dasatinib-sensitive primary T-ALL cases to other ABL inhibitors: subset of primary T-ALL samples (N=18); for response of dasatinib-resistant T-ALL: dasatinib-resistant T-ALL cases, as well as cell lines
Protocol: Ex vivo Leukemia Drug Sensitivity Assay. Drug response of primary human ALL cells was evaluated using a co-culture system and flow cytometry assays. hTERT-immortalized mesenchymal stem cells ([…] Wang, et al. (2019) Nat. Commun. 10:3718) were first seeded in a 96-well plate format at a density of 10,000 cells per well in 100 μL of complete medium (RPMI-1640, L-glutamine, 10% fetal bovine serum and 1 μM Hydrocortisone). After 24 hours, leukemia cells were added at 160,000 cells per well to the stromal cell layer in 80 μL AIM-V medium along with 20 μL of drug solution prepared in the same medium. […] After 96 hours incubation at 37° C. with 5% CO2, cells were harvested and stained with CD19 or CD7 to identify leukemia blasts (for B-ALL and T-ALL, respectively). The total number of live leukemia cells were evaluated by using flow cytometry after Annexin V and DAPI staining. Drug-induced death was estimated by comparing to leukemia cells treated with the vehicle alone. The drug concentration that killed 50% of the leukemia cells (LC50 value) was determined using a dose-response model and as a measurement of drug sensitivity. Quality control was performed to remove cases with low viability (less than 1000 viable blast cells in each well in the absence of drugs on day 4).

[1] = dasatinib dosing for CML, oral twice a day; cited from earlier work

## Cc1ccc(NC(=O)c2ccc(CN3CCN(C)CC3)cc2)cc1Nc1nccc(-c2cccnc2)n1 [imatinib]
Primary human ALL cells
  response of dasatinib-sensitive primary T-ALL cases to other ABL inhibitors: universally resistant

## COc1ccc(N(C(=O)Oc2c(C)cccc2C)c2ccnc(Nc3ccc(N4CCN(C)CC4)cc3)n2)c(OC)c1 [WH 4-023]
Primary human ALL cells
  cytotoxicity in dasatinib-sensitive cases: potent cytotoxicity
  response of dasatinib-resistant T-ALL: largely did not respond

## Cc1cn(-c2cc(NC(=O)c3ccc(C)c(Nc4nccc(-c5cccnc5)n4)c3)cc(C(F)(F)F)c2)cn1 [nilotinib]
Primary human ALL cells
  response of dasatinib-sensitive primary T-ALL cases to other ABL inhibitors: universally resistant

## COC(=O)c1ccc2c(c1)NC(=O)/C2=C(\Nc1ccc(N(C)C(=O)CN2CCN(C)CC2)cc1)c1ccccc1 [nintedanib]
Primary human ALL cells
  cytotoxicity in dasatinib-sensitive cases: potent cytotoxicity
  response of dasatinib-resistant T-ALL: largely did not respond

## Cc1nc(Nc2ncc(C(=O)Nc3c(C)cccc3Cl)s2)cc(N2CCN(CCO)CC2)n1 [dasatinib]
Primary human ALL cells; 45 T-ALL cases, cutoff LC50 80 nM, 15 cases
  T-ALL cases classified as dasatinib-sensitive: 33.3%
Primary human ALL cells; Homo sapiens, 96 h, read-out: LC50 (mean), cases with high LC50, ALL samples, high-LC50 mode of bimodal distribution, 96 hours
  CC50: 12000 nM
Primary human ALL cells; Homo sapiens, 96 h, read-out: LC50 (mean), cases with low LC50, ALL samples (352 children and adults), low-LC50 mode of bimodal distribution, 96 hours
  CC50: 5.92 nM
Primary human ALL cells; Homo sapiens, read-out: LC50 (range), cases with high LC50, ALL samples, high-LC50 mode, 20000 nM is the assigned ceiling
  CC50: 102 to 20000 nM
Primary human ALL cells; Homo sapiens, read-out: LC50, one T-ALL case with TCF7-SP1 fusion, 0.05 nM is the assigned floor value
  CC50: ≤ 0.05 nM
Primary human ALL cells; Homo sapiens, read-out: LC50, two additional T-ALL cases with the same SPI1 fusion gene, ex vivo
  CC50: 0.05 nM
Primary human ALL cells; adults with T-ALL, cutoff LC50 80 nM
  dasatinib-sensitive T-ALL in adults: 16.7%
Primary human ALL cells; children with T-ALL, cutoff LC50 80 nM
  dasatinib-sensitive T-ALL in children: 44.4%
Primary human ALL cells; human, 96 h
  CC50: 0.05 to 79.4 nM
[1]
  Cmax: 60 to 120 nM
